# Measurements reported in patent US11702404B2, “GLP-1R modulating compounds” (priority 2019, dated 2023).
# pEC50: −log10 of the molar value.
# Target: GLP-1R (Homo sapiens, UniProt P43220)
# Assay: GLP-1R activation: cAMP increase in CHO cells stably expressing GLP-1R
# Format: cell-based
# Settings: cAMP increase, CHO cells stably expressing GLP-1R, 10 point dose response, 30 minutes incubation; read-out: EC50
# Chain of GLP-1R (P43220 24-463): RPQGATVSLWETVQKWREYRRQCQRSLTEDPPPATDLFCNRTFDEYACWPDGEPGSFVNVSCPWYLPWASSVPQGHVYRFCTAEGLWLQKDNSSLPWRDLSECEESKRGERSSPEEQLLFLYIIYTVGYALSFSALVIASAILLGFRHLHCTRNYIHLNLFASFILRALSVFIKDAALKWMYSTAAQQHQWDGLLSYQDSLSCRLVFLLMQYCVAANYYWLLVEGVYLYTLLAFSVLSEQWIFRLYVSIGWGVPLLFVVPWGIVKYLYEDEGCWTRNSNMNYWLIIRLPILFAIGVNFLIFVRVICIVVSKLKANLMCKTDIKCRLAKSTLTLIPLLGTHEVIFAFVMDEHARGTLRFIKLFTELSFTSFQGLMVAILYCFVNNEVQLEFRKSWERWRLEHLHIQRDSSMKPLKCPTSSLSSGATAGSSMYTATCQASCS
row,pEC50,Compound
1,8.29,N#Cc1ccc(COc2cccc(-c3cc(F)c(Cc4nc5ccc(C(=O)O)cc5n4C[C@@H]4COCCO4)cc3F)n2)c(F)c1 [Example 642]
2,10.52,O=C(O)c1cc(F)c2nc(Cc3cc(F)c(-c4cccc(OCc5ccc(C(F)F)cc5F)n4)cc3F)n(C[C@@H]3CCO3)c2c1 [Example 643]
3,9.16,N#Cc1ccc(COc2nccc(-c3cc(F)c(Cc4nc5c(F)cc(C(=O)O)cc5n4CC45CC(CO4)C5)cc3F)n2)c(F)c1 [Example 644]
4,8.69,N#Cc1ccc(COc2nccc(-c3cc(F)c(Cc4nc5ccc(C(=O)O)cc5n4CC45CC(CO4)C5)cc3F)n2)c(F)c1 [Example 645]
5,8.75,O=C(O)c1cc(F)c2nc(Cc3ccc(-c4cccc(OCc5ccc(C(F)F)cc5F)n4)cc3F)n(CC34CC(CO3)C4)c2c1 [Example 646]
6,8.52,O=C(O)c1ccc2nc(Cc3ccc(-c4cccc(OCc5ccc(C(F)F)cc5F)n4)cc3F)n(CC34CC(CO3)C4)c2c1 [Example 647]
7,10.05,O=C(O)c1cc(F)c2nc(Cc3ccc(-c4cccc(OCc5ccc(C(F)F)cc5F)n4)cc3F)n(C[C@@H]3CCO3)c2c1 [Example 648]
8,9.70,N#Cc1ccc(COc2cccc(-c3cc(F)c(Cc4nc5c(F)cc(C(=O)O)cc5n4CC45CC(CO4)C5)cc3F)n2)c(F)c1 [Example 649]
9,7.71,N#Cc1ccc(COc2nccc(-c3ccc(Cc4nc5c(F)cc(C(=O)O)cc5n4CC45CC(CO4)C5)cc3F)n2)c(F)c1 [Example 650]
10,5.56,CN1CCO[C@@H](Cn2c(Cc3cc(F)c(-c4cccc(OCc5ccc(C#N)cc5F)n4)cc3F)nc3ccc(C(=O)O)cc32)C1 [Example 651]
11,8.06,COCC1(Cn2c(Cc3cc(F)c(-c4cccc(OCc5ccc(C#N)cc5F)n4)cc3F)nc3ccc(C(=O)O)cc32)CCCO1 (stereo not drawn) [Example 652]
12,7.77,N#Cc1ccc(COc2cccc(-c3cc(F)c(Cc4nc5ccc(C(=O)O)cc5n4CC4CC5(COC5)C4)cc3F)n2)c(F)c1 [Example 653]
13,7.60,COCCn1c(Cc2c(F)cc(-c3cccc(OCc4ccc(Cl)nc4)n3)cc2F)nc2ccc(C(=O)O)cc21 [Example 654]
14,8.90,O=C(O)c1ccc2nc(Cc3ccc(-c4cccc(OCc5ccc(C(F)(F)F)nc5)n4)c(F)c3)n(C[C@@H]3CCO3)c2c1 [Example 655]
15,8.82,N#Cc1ccc(COc2cccc(-c3ccc(Cc4nc5ccc(C(=O)O)cc5n4C[C@@H]4CCO4)cc3F)n2)cn1 [Example 656]
16,8.23,COCCn1c(Cc2cc(F)c(-c3cccc(OCc4ccc(C#N)nc4)n3)cc2F)nc2c(F)cc(C(=O)O)cc21 [Example 657]
17,9.96,O=C(O)c1cc(F)c2nc(Cc3cc(F)c(-c4cccc(OCc5ccc(Cl)nc5)n4)cc3F)n(C[C@@H]3CCO3)c2c1 [Example 658]
18,9.77,N#Cc1ccc(COc2cccc(-c3cc(F)c(Cc4nc5c(F)cc(C(=O)O)cc5n4C[C@@H]4CCO4)cc3F)n2)cn1 [Example 659]
19,7.30,COCCn1c(Cc2cc(F)c(-c3cccc(OCc4cc(Cl)ccc4F)n3)cc2F)nc2ccc(C(=O)O)cc21 [Example 660]
20,8.71,COCCn1c(Cc2cc(F)c(-c3nc(OCc4ccc(C(F)F)cc4F)ccc3F)cc2F)nc2ccc(C(=O)O)cc21 [Example 661]
21,9.41,COCCn1c(Cc2cc(F)c(-c3cccc(OCc4ccc(Cl)cc4F)n3)cc2F)nc2c(F)cc(C(=O)O)cc21 [Example 662]
22,9.29,O=C(O)c1ccc2nc(Cc3cc(F)c(-c4cccc(OCc5ccc(Cl)cc5F)n4)cc3F)n(C[C@@H]3CCO3)c2c1 [Example 663]
23,9.17,COCCn1c(Cc2cc(F)c(-c3nc(OCc4ccc(C(F)F)cc4F)ccc3F)cc2F)nc2c(F)cc(C(=O)O)cc21 [Example 664]
24,9.29,O=C(O)c1ccc2nc(Cc3cc(F)c(-c4cccc(OCc5ccc(C(F)(F)F)cc5F)n4)cc3F)n(C[C@@H]3CCO3)c2c1 [Example 665]

# Test system: not listed separately
# Assay: Microsomal stability, human liver microsomes (predicted hepatic clearance)
# Settings: predicted from in vitro microsomal stability data
row,Predicted Hepatic Clearance (Pred. Cl.) [mL/min/kg],Compound
1,2.67,N#Cc1ccc(COc2cccc(-c3cc(F)c(Cc4nc5ccc(C(=O)O)cc5n4C[C@@H]4COCCO4)cc3F)n2)c(F)c1 [Example 642]
2,5,O=C(O)c1cc(F)c2nc(Cc3cc(F)c(-c4cccc(OCc5ccc(C(F)F)cc5F)n4)cc3F)n(C[C@@H]3CCO3)c2c1 [Example 643]
3,8,N#Cc1ccc(COc2nccc(-c3cc(F)c(Cc4nc5c(F)cc(C(=O)O)cc5n4CC45CC(CO4)C5)cc3F)n2)c(F)c1 [Example 644]
4,9.17,N#Cc1ccc(COc2nccc(-c3cc(F)c(Cc4nc5ccc(C(=O)O)cc5n4CC45CC(CO4)C5)cc3F)n2)c(F)c1 [Example 645]
5,5.83,O=C(O)c1cc(F)c2nc(Cc3ccc(-c4cccc(OCc5ccc(C(F)F)cc5F)n4)cc3F)n(CC34CC(CO3)C4)c2c1 [Example 646]
6,3.5,O=C(O)c1ccc2nc(Cc3ccc(-c4cccc(OCc5ccc(C(F)F)cc5F)n4)cc3F)n(CC34CC(CO3)C4)c2c1 [Example 647]
7,2.33,O=C(O)c1cc(F)c2nc(Cc3ccc(-c4cccc(OCc5ccc(C(F)F)cc5F)n4)cc3F)n(C[C@@H]3CCO3)c2c1 [Example 648]
8,5.83,N#Cc1ccc(COc2cccc(-c3cc(F)c(Cc4nc5c(F)cc(C(=O)O)cc5n4CC45CC(CO4)C5)cc3F)n2)c(F)c1 [Example 649]
9,11,N#Cc1ccc(COc2nccc(-c3ccc(Cc4nc5c(F)cc(C(=O)O)cc5n4CC45CC(CO4)C5)cc3F)n2)c(F)c1 [Example 650]
10,3.33,CN1CCO[C@@H](Cn2c(Cc3cc(F)c(-c4cccc(OCc5ccc(C#N)cc5F)n4)cc3F)nc3ccc(C(=O)O)cc32)C1 [Example 651]
11,8,COCC1(Cn2c(Cc3cc(F)c(-c4cccc(OCc5ccc(C#N)cc5F)n4)cc3F)nc3ccc(C(=O)O)cc32)CCCO1 (stereo not drawn) [Example 652]
12,2.67,N#Cc1ccc(COc2cccc(-c3cc(F)c(Cc4nc5ccc(C(=O)O)cc5n4CC4CC5(COC5)C4)cc3F)n2)c(F)c1 [Example 653]
13,3.5,COCCn1c(Cc2c(F)cc(-c3cccc(OCc4ccc(Cl)nc4)n3)cc2F)nc2ccc(C(=O)O)cc21 [Example 654]
14,5.33,O=C(O)c1ccc2nc(Cc3ccc(-c4cccc(OCc5ccc(C(F)(F)F)nc5)n4)c(F)c3)n(C[C@@H]3CCO3)c2c1 [Example 655]
15,4.67,N#Cc1ccc(COc2cccc(-c3ccc(Cc4nc5ccc(C(=O)O)cc5n4C[C@@H]4CCO4)cc3F)n2)cn1 [Example 656]
16,4,COCCn1c(Cc2cc(F)c(-c3cccc(OCc4ccc(C#N)nc4)n3)cc2F)nc2c(F)cc(C(=O)O)cc21 [Example 657]
17,3,O=C(O)c1cc(F)c2nc(Cc3cc(F)c(-c4cccc(OCc5ccc(Cl)nc5)n4)cc3F)n(C[C@@H]3CCO3)c2c1 [Example 658]
18,3.5,N#Cc1ccc(COc2cccc(-c3cc(F)c(Cc4nc5c(F)cc(C(=O)O)cc5n4C[C@@H]4CCO4)cc3F)n2)cn1 [Example 659]
19,4.17,COCCn1c(Cc2cc(F)c(-c3cccc(OCc4cc(Cl)ccc4F)n3)cc2F)nc2ccc(C(=O)O)cc21 [Example 660]
20,4,COCCn1c(Cc2cc(F)c(-c3nc(OCc4ccc(C(F)F)cc4F)ccc3F)cc2F)nc2ccc(C(=O)O)cc21 [Example 661]
21,3.67,COCCn1c(Cc2cc(F)c(-c3cccc(OCc4ccc(Cl)cc4F)n3)cc2F)nc2c(F)cc(C(=O)O)cc21 [Example 662]
22,1.83,O=C(O)c1ccc2nc(Cc3cc(F)c(-c4cccc(OCc5ccc(Cl)cc5F)n4)cc3F)n(C[C@@H]3CCO3)c2c1 [Example 663]
23,4.67,COCCn1c(Cc2cc(F)c(-c3nc(OCc4ccc(C(F)F)cc4F)ccc3F)cc2F)nc2c(F)cc(C(=O)O)cc21 [Example 664]
24,1.83,O=C(O)c1ccc2nc(Cc3cc(F)c(-c4cccc(OCc5ccc(C(F)(F)F)cc5F)n4)cc3F)n(C[C@@H]3CCO3)c2c1 [Example 665]
